Assay: xn = mol fraction of the nth substance listed

CCCC[N+]1(C)CCCC1.O=S(=O)([N-]S(=O)(=O)C(F)(F)F)C(F)(F)F + O=C1CCCO1
100 kPa
Conditions | electrical conductivity [S/m] | viscosity [mPa·s]
303.15 K, x2 = 0.2019 | 0.461 | 36.7
308.15 K, x2 = 0.1075 | 0.459 | 39.2
308.15 K, x2 = 0.3004 | 0.638 | 23.93
308.15 K, x2 = 0.9498 | 1.31 | –
313.15 K, x2 = 0.7009 | 1.67 | 5.75
313.15 K, x2 = 0.9498 | 1.41 | –
318.15 K, x2 = 0.2019 | 0.705 | 22.28
318.15 K, x2 = 0.8509 | 2.23 | –
318.15 K, x2 = 0.9498 | 1.5 | –
323.15 K, x2 = 0.3004 | 0.905 | 15.24
323.15 K, x2 = 0.5999 | 1.57 | 6.44
323.15 K, x2 = 0.7009 | 1.98 | 4.7
323.15 K, x2 = 0.9498 | 1.6 | –

CC[N+](C)(CC)CCOC.O=S(=O)([N-]S(=O)(=O)C(F)(F)F)C(F)(F)F + O=C1CCCO1
101 kPa
Conditions | electrical conductivity [S/m] | viscosity [mPa·s]
288.15 K, x1 = 0.1004 | 1.07 | 5.77
288.15 K, x1 = 0.2006 | 1.05 | 8.69
288.15 K, x1 = 0.4998 | 0.504 | 39.28
288.15 K, x1 = 0.6002 | 0.42 | 63.7
293.15 K, x1 = 0.1004 | 1.18 | 4.642
293.15 K, x1 = 0.3003 | 0.925 | 12.34
293.15 K, x1 = 0.4998 | 0.589 | 30.79
293.15 K, x1 = 1 | 0.184 | 162.2
298.15 K, x1 = 0.1004 | 1.305 | 3.697
298.15 K, x1 = 0.4007 | 0.841 | 15.12
303.15 K, x1 = 0.6999 | 0.592 | 39.92
303.15 K, x1 = 1 | 0.301 | 89.7
308.15 K, x1 = 0.3003 | 1.28 | 7.61
308.15 K, x1 = 0.4007 | 1.08 | 10.57
308.15 K, x1 = 0.4998 | 0.904 | 15.55
308.15 K, x1 = 0.9003 | 0.463 | 51.6
313.15 K, x1 = 0.1004 | 1.644 | 1.923
313.15 K, x1 = 0.2006 | 1.76 | 3.958
313.15 K, x1 = 0.8001 | 0.676 | 30.48
318.15 K, x1 = 0.6002 | 1.021 | 14.49
323.15 K, x1 = 0.2006 | 2.07 | 2.954
323.15 K, x1 = 0.4007 | 1.5 | 6.43
323.15 K, x1 = 0.4998 | 1.29 | 8.64
323.15 K, x1 = 0.6002 | 1.145 | 11.6
328.15 K, x1 = 0.6002 | 1.28 | 9.45
328.15 K, x1 = 1 | 0.706 | 26.35
333.15 K, x1 = 0.4007 | 1.812 | 4.73
333.15 K, x1 = 1 | 0.816 | 21.31
343.15 K, x1 = 0.3003 | 2.44 | 2.72
343.15 K, x1 = 0.4998 | 1.926 | 4.472
348.15 K, x1 = 0.4007 | 2.346 | 3.095
348.15 K, x1 = 0.6999 | 1.68 | 5.09
348.15 K, x1 = 0.9003 | 1.328 | 9.11
353.15 K, x1 = 0.2006 | 3.09 | 1.361
353.15 K, x1 = 0.3003 | 2.85 | 2.11
353.15 K, x1 = 0.6002 | 2.05 | 3.425
353.15 K, x1 = 0.9003 | 1.46 | 7.16

C1CCC2=NCCCN2CC1 + O=S(=O)([N-]S(=O)(=O)C(F)(F)F)C(F)(F)F.[Li+]
101 kPa, frequency 0 MHz, x1 = 0.8
Conditions | electrical conductivity [S/m]
328.15 K | 0.00259
338.15 K | 0.00474
348.15 K | 0.0114

101 kPa, x1 = 0.8
Conditions | viscosity [mPa·s]
328.15 K | 3336
348.15 K | 358

O=S(=O)([N-]S(=O)(=O)C(F)(F)F)C(F)(F)F.[Na+] + O=S(=O)([N-]S(=O)(=O)C(F)(F)F)C(F)(F)F.[Li+]
100 kPa, frequency 1 MHz, x2 = 0.67
Conditions | electrical conductivity [S/m]
473.6 K | 0.114
483.1 K | 0.156
492.1 K | 0.205
502.4 K | 0.269
512.5 K | 0.342
523.2 K | 0.435
531.5 K | 0.533
543.3 K | 0.635
552 K | 0.753
561.2 K | 0.91
571 K | 1.02

100 kPa, x2 = 0.67
Conditions | viscosity [mPa·s]
473.9 K | 411
483.1 K | 267
492.6 K | 203
502.5 K | 146
512.8 K | 106
523.6 K | 78.1
531.9 K | 60.7
543.5 K | 46.8
552.5 K | 36.2
561.8 K | 29.1

CCCCCCCCn1cc[n+](C)c1.[Br-] + OC1OC[C@@H](O)[C@H](O)[C@H]1O + O
298.15 K, 101 kPa
Conditions | viscosity [mPa·s]
x2 = 0, x1 = 0.001831 | 0.965
x2 = 0, x1 = 0.003598 | 1.025
x2 = 0, x1 = 0.005443 | 1.103
x2 = 0, x1 = 0.007132 | 1.172

CCn1cc[nH+]c1.[Cl-] + OCC(O)CO
Conditions | viscosity [mPa·s]
303.15 K, 100 kPa, x1 = 0.333 | 65.7

CCCC[n+]1ccn(C)c1.O=S(=O)([O-])C(F)(F)F + OCCO
100 kPa
Conditions | viscosity [mPa·s]
298.15 K, x1 = 0.0926 | 15.47
298.15 K, x1 = 0.6922 | 33.7
303.15 K, x1 = 0.0926 | 12.53
303.15 K, x1 = 0.4999 | 21.87
303.15 K, x1 = 0.6922 | 27.7
308.15 K, x1 = 0.2985 | 13.86
308.15 K, x1 = 0.4999 | 18.33
308.15 K, x1 = 0.6922 | 23.66
308.15 K, x1 = 0.7966 | 29
313.15 K, x1 = 0.2985 | 11.67
313.15 K, x1 = 0.4999 | 15.58
313.15 K, x1 = 0.6922 | 20.18
318.15 K, x1 = 0.0926 | 7.45
318.15 K, x1 = 0.4999 | 13.4
323.15 K, x1 = 0.1936 | 6.92
323.15 K, x1 = 0.3912 | 9.9
323.15 K, x1 = 0.7966 | 18.19

CCCC[n+]1ccn(C)c1.[Cl-] + OC[C@H]1O[C@@](CO)(O[C@H]2O[C@H](CO)[C@@H](O)[C@H](O)[C@H]2O)[C@@H](O)[C@@H]1O + O
298.15 K, 101.3 kPa
Conditions | electrical conductivity [S/m]
x2 = 0, x1 = 8.71e-06 | 0.00583
x2 = 0, x1 = 1.208e-05 | 0.00794
x2 = 0, x1 = 1.485e-05 | 0.00965
x2 = 0, x1 = 1.707e-05 | 0.01101
x2 = 0, x1 = 1.937e-05 | 0.01241
x2 = 0, x1 = 2.164e-05 | 0.0138
x2 = 0, x1 = 2.397e-05 | 0.0152
x2 = 0, x1 = 2.6e-05 | 0.0164
x2 = 0, x1 = 2.824e-05 | 0.0177
x2 = 0, x1 = 3.029e-05 | 0.019
x2 = 0.003591, x1 = 1.096e-05 | 0.00618
x2 = 0.003591, x1 = 1.434e-05 | 0.00795
x2 = 0.003591, x1 = 1.771e-05 | 0.0097
x2 = 0.003591, x1 = 2.081e-05 | 0.0113
x2 = 0.003591, x1 = 2.41e-05 | 0.013
x2 = 0.003591, x1 = 2.709e-05 | 0.0145
x2 = 0.003591, x1 = 3.023e-05 | 0.01612
x2 = 0.003591, x1 = 3.313e-05 | 0.0176
x2 = 0.003591, x1 = 3.593e-05 | 0.019
x2 = 0.007156, x1 = 8.21e-06 | 0.00407
x2 = 0.007156, x1 = 1.202e-05 | 0.00576
x2 = 0.007156, x1 = 1.591e-05 | 0.00748
x2 = 0.007156, x1 = 1.939e-05 | 0.009
x2 = 0.007156, x1 = 2.274e-05 | 0.0105
x2 = 0.007156, x1 = 2.585e-05 | 0.0118
x2 = 0.007156, x1 = 2.894e-05 | 0.01315
x2 = 0.007156, x1 = 3.183e-05 | 0.01439
x2 = 0.007156, x1 = 3.476e-05 | 0.0156
x2 = 0.007156, x1 = 3.761e-05 | 0.0169
x2 = 0.0107, x1 = 9.71e-06 | 0.00386
x2 = 0.0107, x1 = 2.409e-05 | 0.00888
x2 = 0.0107, x1 = 3.038e-05 | 0.01101
x2 = 0.0107, x1 = 3.477e-05 | 0.0125
x2 = 0.0107, x1 = 3.967e-05 | 0.01408
x2 = 0.0107, x1 = 4.399e-05 | 0.0155
x2 = 0.0107, x1 = 4.83e-05 | 0.0169
x2 = 0.0107, x1 = 5.264e-05 | 0.01825
x2 = 0.0107, x1 = 5.673e-05 | 0.0195
x2 = 0.01421, x1 = 1.037e-05 | 0.00348
x2 = 0.01421, x1 = 1.591e-05 | 0.00514
x2 = 0.01421, x1 = 2.109e-05 | 0.00667
x2 = 0.01421, x1 = 2.647e-05 | 0.00823
x2 = 0.01421, x1 = 3.163e-05 | 0.00971
x2 = 0.01421, x1 = 3.643e-05 | 0.01107
x2 = 0.01421, x1 = 4.107e-05 | 0.01237
x2 = 0.01421, x1 = 4.582e-05 | 0.0137
x2 = 0.01421, x1 = 5.048e-05 | 0.015
x2 = 0.01421, x1 = 5.498e-05 | 0.01621
x2 = 0.01421, x1 = 5.983e-05 | 0.0175
x2 = 0.0177, x1 = 1.237e-05 | 0.00351
x2 = 0.0177, x1 = 1.842e-05 | 0.00504
x2 = 0.0177, x1 = 2.347e-05 | 0.00631
x2 = 0.0177, x1 = 2.887e-05 | 0.00764
x2 = 0.0177, x1 = 3.44e-05 | 0.00899
x2 = 0.0177, x1 = 4.072e-05 | 0.0105
x2 = 0.0177, x1 = 4.633e-05 | 0.0118
x2 = 0.0177, x1 = 5.265e-05 | 0.01333
x2 = 0.0177, x1 = 5.909e-05 | 0.0148
x2 = 0.0177, x1 = 6.545e-05 | 0.0163
x2 = 0.0177, x1 = 7.135e-05 | 0.0176

CCCC[n+]1ccn(C)c1.[Cl-] + OC[C@H]1O[C@H](O[C@H]2[C@H](O)[C@@H](O)C(O)O[C@@H]2CO)[C@H](O)[C@@H](O)[C@@H]1O + O
298.15 K, 101.3 kPa
Conditions | electrical conductivity [S/m]
x2 = 0, x1 = 8.71e-06 | 0.00583
x2 = 0, x1 = 1.208e-05 | 0.00794
x2 = 0, x1 = 1.485e-05 | 0.00965
x2 = 0, x1 = 1.707e-05 | 0.01101
x2 = 0, x1 = 1.937e-05 | 0.01241
x2 = 0, x1 = 2.164e-05 | 0.0138
x2 = 0, x1 = 2.397e-05 | 0.0152
x2 = 0, x1 = 2.6e-05 | 0.0164
x2 = 0, x1 = 2.824e-05 | 0.0177
x2 = 0, x1 = 3.029e-05 | 0.019

CCCCCCCCn1cc[n+](C)c1.[Br-] + [Cl-].[Li+] + O
298.15 K, 100 kPa
Conditions | viscosity [mPa·s]
x2 = 0, x3 = 0.9487 | 7.96
x2 = 0.00845, x3 = 0.9403 | 7.94
x2 = 0.0171, x3 = 0.9316 | 8.68
x2 = 0.02497, x3 = 0.9237 | 10.09
x2 = 0.03315, x3 = 0.9155 | 10.9
x2 = 0.04088, x3 = 0.9078 | 12.6

CCCC[n+]1ccn(C)c1.O=S(=O)([O-])C(F)(F)F + c1ccccc1
100 kPa
Conditions | viscosity [mPa·s]
298.15 K, x2 = 0 | 88
298.15 K, x2 = 0.122 | 64.3
298.15 K, x2 = 0.573 | 12.62
308.15 K, x2 = 0.122 | 42.2
308.15 K, x2 = 0.304 | 25.4
318.15 K, x2 = 0.467 | 10.64
318.15 K, x2 = 0.573 | 7.22
328.15 K, x2 = 0.304 | 13.62
328.15 K, x2 = 0.467 | 8.2

Source: the CheMixHub ionic liquid set
